Measurements from US12195442B2, “(Hetero)arylimidazole compound and harmful organism control agent” (Nippon Soda Co., Ltd., priority 2018, dated 2025).

System: Mythimna separata
Test: Test Example 1: efficacy on Mythimna separata (treated artificial feed)
Type: in vivo
Details: 1 μl of 5% emulsion (I) mixed with 0.8 g artificial feed; second instar larvae; 25° C.; fifth day
Method: 5 parts of the (hetero)aryl imidazole compound of the present invention, 93.6 parts of dimethylformamide, and 1.4 parts of polyoxyethylene alkyl aryl ether were mixed and dissolved to prepare emulsion (I) containing 5% of the active ingredient.
For a control, 98.5 parts of dimethylformamide and 1.5 parts of polyoxyethylene alkyl aryl ether were mixed and dissolved to prepare emulsion (II).
An insecticidal rate was calculated according to the following expression: Insecticidal rate (%)=(The number of dead insects/The number of tested insects)×100
0.8 g of commercially available artificial feed (Insecta LFS, manufactured by Nosan Corp.) and 1 μl of the emulsion (I) were well mixed to obtain test feed.
A plastic test container (capacity: 1.4 ml) was packed with 0.2 g of the test feed per treatment plot. Then, two second instar larvae of Mythimna separata were inoculated to each treatment plot. A plastic lid was put on the test container so as to prevent escape of the second instar larvae of Mythimna separata. The container was placed in a thermostat chamber of 25° C. On the fifth day, the insecticidal rate and the food intake were examined. The test was conducted in duplicate.
The insecticidal rate and the food intake of a control plot were examined in the same way as in Test Example 1 except that the emulsion (I) was changed to the emulsion (II).

SMILES	insecticidal rate or food intake as compared with the control plot
CCSc1cc(C2CC2)ccc1-c1ncc(C=C(Cl)C(F)(F)F)n1C (mixture of isomers) [d-6]	insecticidal rate of 100% for Mythimna separata or a food intake of 10% or less as compared with the control plot
CCS(=O)(=O)c1cc(C2CC2)ccc1-c1ncc(C=C(Cl)C(F)(F)F)n1C (mixture of isomers) [d-7]	insecticidal rate of 100% for Mythimna separata or a food intake of 10% or less as compared with the control plot
CCS(=O)(=O)c1cc(C2(C(N)=S)CC2)cnc1-c1ncc(C=C(Cl)C(F)(F)F)n1C (mixture of isomers) [d-18]	insecticidal rate of 100% for Mythimna separata or a food intake of 10% or less as compared with the control plot
CCS(=O)(=O)c1cc(C2(C)CC2)cnc1-c1ncc(C=C(Cl)C(F)(F)F)n1C (mixture of isomers) [d-20]	insecticidal rate of 100% for Mythimna separata or a food intake of 10% or less as compared with the control plot
CCS(=O)(=O)c1cc(C2(c3ccccn3)CC2)cnc1-c1ncc(C=C(Cl)C(F)(F)F)n1C (mixture of isomers) [d-21]	insecticidal rate of 100% for Mythimna separata or a food intake of 10% or less as compared with the control plot
CCS(=O)(=O)c1cc(C2CC2)cnc1-c1ncc(C=C(Br)C(F)(F)F)n1C (mixture of isomers) [d-24]	insecticidal rate of 100% for Mythimna separata or a food intake of 10% or less as compared with the control plot
Cn1c(C=C(Cl)C(F)(F)F)cnc1-c1ncc(C2CC2)cc1S(C)(=O)=O (mixture of isomers) [d-28]	insecticidal rate of 100% for Mythimna separata or a food intake of 10% or less as compared with the control plot
CCS(=O)(=O)c1cc(C2CCCC2)cnc1-c1ncc(C=C(Cl)C(F)(F)F)n1C (mixture of isomers) [d-32]	insecticidal rate of 100% for Mythimna separata or a food intake of 10% or less as compared with the control plot
CCS(=O)(=O)c1cc(C2CC2)cnc1-c1ncc(C(F)=C(F)OC(F)(F)F)n1C (mixture of isomers) [d-37]	insecticidal rate of 100% for Mythimna separata or a food intake of 10% or less as compared with the control plot
CCS(=O)(=O)c1cc(C2CC2)c[n+]([O-])c1-c1ncc(C=C(Cl)C(F)(F)F)n1C (mixture of isomers) [e-4]	insecticidal rate of 100% for Mythimna separata or a food intake of 10% or less as compared with the control plot
CCS(=O)(=O)c1cc(C2CC2)cnc1-c1ncc(C=CC(F)(F)C(F)(F)F)n1C [d-1]	insecticidal rate of 100% for Mythimna separata or a food intake of 10% or less as compared with the control plot
CCS(=O)(=O)c1cc(C2CC2)ccc1-c1ncc(C=CC(F)(F)C(F)(F)C(F)(F)F)n1C [d-3]	insecticidal rate of 100% for Mythimna separata or a food intake of 10% or less as compared with the control plot
CCS(=O)(=O)c1cc(C2CC2)cnc1-c1ncc(C=CC(F)(F)C(F)(F)C(F)(F)C(F)(F)F)n1C [d-4]	insecticidal rate of 100% for Mythimna separata or a food intake of 10% or less as compared with the control plot
CCS(=O)(=O)c1cc(C2CC2)ccc1-c1ncc(C=CC(F)(F)C(F)(F)F)n1C [d-5]	insecticidal rate of 100% for Mythimna separata or a food intake of 10% or less as compared with the control plot
CCS(=O)(=O)c1cc(C2CC2)cnc1-c1ncc(C=C(Cl)Cl)n1C [d-8]	insecticidal rate of 100% for Mythimna separata or a food intake of 10% or less as compared with the control plot
CCS(=O)(=O)c1cc(C2CC2)cnc1-c1ncc(C=C(Cl)C(F)(F)C(F)(F)F)n1C [d-12]	insecticidal rate of 100% for Mythimna separata or a food intake of 10% or less as compared with the control plot
CCS(=O)(=O)c1cc(C2CC2)cnc1-c1ncc(C=C(Cl)C(F)(F)C(F)(F)C(F)(F)F)n1C [d-13]	insecticidal rate of 100% for Mythimna separata or a food intake of 10% or less as compared with the control plot
CCS(=O)(=O)c1cc(C2CC2)cnc1-c1ncc(C=C(Cl)I)n1C [d-14]	insecticidal rate of 100% for Mythimna separata or a food intake of 10% or less as compared with the control plot
CCS(=O)(=O)c1cc(C2(C#N)CC2)cnc1-c1ncc(C=C(Cl)C(F)(F)F)n1C [d-15, 1-(6-(5-(2-chloro-3,3,3-trifluoroprop-1-en-1-yl)-1-methyl-1H-imidazol-2-yl)-5-(ethylsulfonyl)pyridin-3-yl)cyclopropane-1-carbonitrile]	insecticidal rate of 100% for Mythimna separata or a food intake of 10% or less as compared with the control plot
CCS(=O)(=O)c1cc(C2(C#N)CC2)cnc1-c1ncc(C=CC(F)(F)F)n1C [d-16]	insecticidal rate of 100% for Mythimna separata or a food intake of 10% or less as compared with the control plot
CCS(=O)(=O)c1cc(C2CC2)cnc1-c1ncc(C=C(C(F)(F)F)C(F)(F)F)n1C [d-19]	insecticidal rate of 100% for Mythimna separata or a food intake of 10% or less as compared with the control plot
CCS(=O)(=O)c1cc(C2(C#N)CC2)cnc1-c1ncc(C=CC(F)(F)C(F)(F)F)n1C [d-22]	insecticidal rate of 100% for Mythimna separata or a food intake of 10% or less as compared with the control plot
CCS(=O)(=O)c1cc(C2(C#N)CC2)cnc1-c1ncc(C=CC(F)(F)C(F)(F)C(F)(F)F)n1C [d-23]	insecticidal rate of 100% for Mythimna separata or a food intake of 10% or less as compared with the control plot
CCS(=O)(=O)c1cc(C2CC2)cnc1-c1ncc(C=C(F)C(F)(F)C(F)(F)C(F)(F)F)n1C [d-27]	insecticidal rate of 100% for Mythimna separata or a food intake of 10% or less as compared with the control plot
CCS(=O)(=O)c1cc(C2(C)CC2)cnc1-c1ncc(C=CC(F)(F)C(F)(F)C(F)(F)F)n1C [d-29]	insecticidal rate of 100% for Mythimna separata or a food intake of 10% or less as compared with the control plot
Cn1c(C=C(Cl)C(F)(F)C(F)(F)F)cnc1-c1ncc(C2CC2)cc1S(C)(=O)=O [d-30]	insecticidal rate of 100% for Mythimna separata or a food intake of 10% or less as compared with the control plot
CCS(=O)(=O)c1cc(C2CC2)cnc1-c1ncc(C=C(Cl)C(F)(F)F)n1C [d-33]	insecticidal rate of 100% for Mythimna separata or a food intake of 10% or less as compared with the control plot
CCS(=O)(=O)c1cc(C2CC2)cnc1-c1ncc(C(F)=C(F)OC(F)(F)C(F)(F)C(F)(F)F)n1C [d-35]	insecticidal rate of 100% for Mythimna separata or a food intake of 10% or less as compared with the control plot
CCS(=O)(=O)c1cc(C2CC2)c[n+]([O-])c1-c1ncc(C=C(F)C(F)(F)C(F)(F)F)n1C [e-1]	insecticidal rate of 100% for Mythimna separata or a food intake of 10% or less as compared with the control plot
